According to patent publication US9023847B2, “Azaheterocyclic compounds” (Merck Patent GmbH, priority 2009, dated 2015):

Target: T1, P70S6K (T412E mutant, Millipore) (Homo sapiens, UniProt P23443, T412E)
T1 construct: purchased Millipore
Experiment: p70S6K enzyme assay
Type: biochemical
Conditions: Table 1; 3 nM P70S6K, 24 μM ATP, 90 min at 25° C.; read-out: p70S6K inhibition (IC50)
How it was run: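 T412E-mutant P70S6K (3 nM) with 24 μM ATP and 1 μM FITC-AHA-AKRRRLSSLRA-OH S6-derived peptide in 100 mM Hepes pH 7.5, 5 mM MgCl2, 1 mM DTT, 0.015% Brij; 90 min at 25° C, EDTA stop. Phosphorylated product and substrate peptide separated and quantified by microfluidic capillary electrophoresis (Caliper LabChip 3000).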

T1 sequence (P23443 whole entry T412E): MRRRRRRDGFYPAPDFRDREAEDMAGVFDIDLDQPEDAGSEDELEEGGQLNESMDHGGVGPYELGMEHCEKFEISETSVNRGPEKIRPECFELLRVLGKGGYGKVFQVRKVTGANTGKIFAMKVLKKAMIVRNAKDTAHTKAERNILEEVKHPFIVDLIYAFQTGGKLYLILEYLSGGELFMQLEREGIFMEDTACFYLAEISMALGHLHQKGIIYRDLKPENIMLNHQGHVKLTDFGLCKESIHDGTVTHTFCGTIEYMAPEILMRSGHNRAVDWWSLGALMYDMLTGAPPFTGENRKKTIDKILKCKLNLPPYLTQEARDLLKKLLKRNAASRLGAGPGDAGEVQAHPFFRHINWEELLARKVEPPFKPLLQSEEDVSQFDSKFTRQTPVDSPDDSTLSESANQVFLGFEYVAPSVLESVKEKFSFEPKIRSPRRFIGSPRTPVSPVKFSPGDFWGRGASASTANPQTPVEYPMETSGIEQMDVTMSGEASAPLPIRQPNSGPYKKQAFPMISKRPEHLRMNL

SMILES	IC50 [nM]
O=C(NCc1cccc(Cl)c1)c1occc1Nc1ncnc2[nH]ccc12 [Example 141, 3-(7H-Pyrrolo[2,3-d]pyrimidin-4-ylamino)-furan-2-carboxylic acid 3-chloro-benzylamide]	< 100

Same assay, conditions: class symbol; 3 nM P70S6K, 24 μM ATP; read-out: IC50 (p70S6K)

SMILES	IC50 [nM]
CC(C)(C)OC(=O)N1CCC(NC(=O)c2ccsc2Nc2ccnc3[nH]ccc23)C1 (centres unmarked) [Example 102, 3-{[2-(1H-Pyrrolo[2,3-b]pyridin-4-ylamino)-thiophene-3-carbonyl]-amino}-pyrrolidine-1-carboxylic acid tert-butyl ester]	100 to 1000
O=C(NC1CCNC1)c1ccsc1Nc1ccnc2[nH]ccc12 (centres unmarked) [Example 103, 2-(1H-Pyrrolo[2,3-b]pyridin-4-ylamino)-thiophene-3-carboxylic acid pyrrolidin-3-ylamide]	< 100
CC(C)(C)OC(=O)N1CCCC(NC(=O)c2ccsc2Nc2ccnc3[nH]ccc23)C1 (centres unmarked) [Example 104, 3-{[2-(1H-Pyrrolo[2,3-b]pyridin-4-ylamino)-thiophene-3-carbonyl]-amino}-piperidine-1-carboxylic acid tert-butyl ester]	100 to 1000
O=C(NC1CCCNC1)c1ccsc1Nc1ccnc2[nH]ccc12 (centres unmarked) [Example 105, 2-(1H-Pyrrolo[2,3-b]pyridin-4-ylamino)-thiophene-3-carboxylic acid piperidin-3-ylamide]	< 100
NCC(NC(=O)c1sccc1Nc1ccnc2[nH]ccc12)c1cccc(F)c1 (centres unmarked) [Example 106, 3-(1H-Pyrrolo[2,3-b]pyridin-4-ylamino)-thiophene-2-carboxylic acid [2-amino-1-(3-fluoro-phenyl)-ethyl]-amide]	< 100
COc1ccccc1C(CN)NC(=O)c1sccc1Nc1ccnc2[nH]ccc12 (centres unmarked) [Example 107, 3-(1H-Pyrrolo[2,3-b]pyridin-4-ylamino)-thiophene-2-carboxylic acid [2-amino-1-(2-methoxy-phenyl)-ethyl]-amide]	< 100
NCC(NC(=O)c1ccsc1Nc1ccnc2[nH]ccc12)c1cccc(F)c1 (centres unmarked) [Example 108, 2-(1H-Pyrrolo[2,3-b]pyridin-4-ylamino)-thiophene-3-carboxylic acid [2-amino-1-(3-fluoro-phenyl)-ethyl]-amide]	< 100
COc1ccccc1C(CN)NC(=O)c1ccsc1Nc1ccnc2[nH]ccc12 (centres unmarked) [Example 109, 2-(1H-Pyrrolo[2,3-b]pyridin-4-ylamino)-thiophene-3-carboxylic acid [2-amino-1-(2-methoxy-phenyl)-ethyl]-amide]	< 100
COc1ccc(C(CN)NC(=O)c2ccsc2Nc2ccnc3[nH]ccc23)cc1OC (centres unmarked) [Example 110, 2-(1H-Pyrrolo[2,3-b]pyridin-4-ylamino)-thiophene-3-carboxylic acid [2-amino-1-(3,4-dimethoxy-phenyl)-ethyl]-amide]	< 100
Nc1cccc(CNC(=O)c2ccsc2Nc2ccnc3[nH]ccc23)c1 [Example 111, 2-(1H-Pyrrolo[2,3-b]pyridin-4-ylamino)-thiophene-3-carboxylic acid 3-amino-benzylamide]	< 100
O=C(NCc1ccccc1)c1ccsc1Nc1ccnc2[nH]ccc12 [Example 112, 2-(1H-Pyrrolo[2,3-b]pyridin-4-ylamino)-thiophene-3-carboxylic acid benzylamide]	< 100
COc1ccc(C(CN)NC(=O)c2sccc2Nc2ccnc3[nH]ccc23)cc1OC (centres unmarked) [Example 113, 3-(1H-Pyrrolo[2,3-b]pyridin-4-ylamino)-thiophene-2-carboxylic acid [2-amino-1-(3,4-dimethoxy-phenyl)-ethyl]-amide]	< 100
[N-]=[N+]=NC[C@@H](NC(=O)c1ccsc1Nc1ccnc2[nH]ccc12)c1ccccc1 [Example 114, 2-(1H-Pyrrolo[2,3-b]pyridin-4-ylamino)-thiophene-3-carboxylic acid ((S)-2-azido-1-phenyl-ethyl)-amide]	< 100
N#CC[C@@H](NC(=O)c1sccc1Nc1ccnc2[nH]ccc12)c1ccccc1 [Example 115, 3-(1H-Pyrrolo[2,3-b]pyridin-4-ylamino)-thiophene-2-carboxylic acid ((R)-2-cyano-1-phenyl-ethyl)-amide]	< 100
N#CC(NC(=O)c1ccsc1Nc1ccnc2[nH]ccc12)c1ccccc1 (centres unmarked) [Example 116, 2-(1H-Pyrrolo[2,3-b]pyridin-4-ylamino)-thiophene-3-carboxylic acid (cyano-phenyl-methyl)-amide]	< 100
CC(C)C[C@@H](CO)NC(=O)c1ccsc1Nc1ccnc2[nH]ccc12 [Example 117, 2-(1H-Pyrrolo[2,3-b]pyridin-4-ylamino)-thiophene-3-carboxylic acid ((S)-1-hydroxymethyl-3-methyl-butyl)-amide]	< 100
O=C(N[C@H](CO)Cc1ccccc1)c1ccsc1Nc1ccnc2[nH]ccc12 [Example 118, 2-(1H-Pyrrolo[2,3-b]pyridin-4-ylamino)-thiophene-3-carboxylic acid ((S)-1-hydroxymethyl-2-phenyl-ethyl)-amide]	< 100

SMILES	IC50 [nM]
O=C(N[C@@H](CO)Cc1ccccc1)c1ccsc1Nc1ccnc2[nH]ccc12 [Example 119, 2-(1H-Pyrrolo[2,3-b]pyridin-4-ylamino)-thiophene-3-carboxylic acid ((R)-1-hydroxymethyl-2-phenyl-ethyl)-amide]	100 to 1000
NC(=O)C[C@@H](NC(=O)c1sccc1Nc1ccnc2[nH]ccc12)c1ccccc1 [Example 120, 3-(1H-Pyrrolo[2,3-b]pyridin-4-ylamino)-thiophene-2-carboxylic acid ((R)-2-carbamoyl-1-phenyl-ethyl)-amide]	< 100
Cc1ccc(C(CN)NC(=O)c2ccsc2Nc2ccnc3[nH]ccc23)cc1 (centres unmarked) [Example 126, 2-(1H-Pyrrolo[2,3-b]pyridin-4-ylamino)-thiophene-3-carboxylic acid (2-amino-1-p-tolyl-ethyl)-amide]	< 100
COc1cccc(C(CN)NC(=O)c2ccsc2Nc2ccnc3[nH]ccc23)c1 (centres unmarked) [Example 127, 2-(1H-Pyrrolo[2,3-b]pyridin-4-ylamino)-thiophene-3-carboxylic acid [2-amino-1-(3-methoxy-phenyl)-ethyl]-amide]	< 100
NCC(NC(=O)c1ccsc1Nc1ccnc2[nH]ccc12)c1ccc(Cl)c(Cl)c1 (centres unmarked) [Example 128, 2-(1H-Pyrrolo[2,3-b]pyridin-4-ylamino)-thiophene-3-carboxylic acid [2-amino-1-(3,4-dichloro-phenyl)-ethyl]-amide]	< 100
O=C(Nc1cccc(CNC(=O)c2sccc2Nc2ccnc3[nH]ccc23)c1)c1ccnc(Cl)c1 [Example 129, 2-Chloro-N-[3-({[3-(1H-pyrrolo[2,3-b]pyridin-4-ylamino)-thiophene-2-carbonyl]-amino}-methyl)-phenyl]-isonicotinamide]	< 100
NCC(NC(=O)c1ccsc1Nc1ccnc2[nH]ccc12)c1cccc(Cl)c1 (centres unmarked) [Example 130, 2-(1H-Pyrrolo[2,3-b]pyridin-4-ylamino)-thiophene-3-carboxylic acid [2-amino-1-(3-chloro-phenyl)-ethyl]-amide]	< 100
CC(NCCNC(=O)c1sccc1Nc1ccnc2[nH]ccc12)c1ccccc1 (centres unmarked) [Example 131, 3-(1H-Pyrrolo[2,3-b]pyridin-4-ylamino)-thiophene-2-carboxylic acid [2-(1-phenyl-ethylamino)-ethyl]-amide]	< 100
NCC(NC(=O)c1sccc1Nc1ccnc2[nH]ccc12)c1ccc(C(F)(F)F)cc1 (centres unmarked) [Example 132, 3-(1H-Pyrrolo[2,3-b]pyridin-4-ylamino)-thiophene-2-carboxylic acid [2-amino-1-(4-trifluoromethyl-phenyl)-ethyl]-amide]	< 100
NCC(NC(=O)c1ccsc1Nc1ccnc2[nH]ccc12)c1ccc(C(F)(F)F)cc1 (centres unmarked) [Example 133, 2-(1H-Pyrrolo[2,3-b]pyridin-4-ylamino)-thiophene-3-carboxylic acid [2-amino-1-(4-trifluoromethyl-phenyl)-ethyl]-amide]	< 100
O=C(N[C@H](CN1C(=O)c2ccccc2C1=O)c1ccccc1)c1ccsc1Nc1ccnc2[nH]ccc12 [Example 134, (S)-[3-(1H-Pyrrolo[2,3-b]pyridin-4-ylamino)-thiophene-2-carboxylic acid[2-(1,3-dioxo-1,3-dihydro-isoindol-2-yl)-1-phenyl-ethyl]-amide]]	< 100
O=C(N[C@H](CN1C(=O)c2ccccc2C1=O)c1ccccc1)c1sccc1Nc1ccnc2[nH]ccc12 [Example 135, (S)-2-(1H-Pyrrolo[2,3-b]pyridin-4-ylamino)-thiophene-3-carboxylic acid[2-(1,3-dioxo-1,3-dihydro-isoindol-2-yl)-1-phenyl-ethyl]-amide]	< 100
Cc1ccc(CNCCNC(=O)c2sccc2Nc2ccnc3[nH]ccc23)cc1 [Example 136, 3-(1H-Pyrrolo[2,3-b]pyridin-4-ylamino)-thiophene-2-carboxylic acid [2-(4-methyl-benzylamino)-ethyl]-amide]	< 100
COc1ccc(CNCCNC(=O)c2sccc2Nc2ccnc3[nH]ccc23)cc1Cl [Example 137, 3-(1H-Pyrrolo[2,3-b]pyridin-4-ylamino)-thiophene-2-carboxylic acid [2-(3-chloro-4-methoxy-benzylamino)-ethyl]-amide]	< 100
COC(=O)CNC(=O)c1sccc1Nc1ccnc2[nH]ccc12 [Example 138, {[3-(1H-Pyrrolo[2,3-b]pyridin-4-ylamino)-thiophene-2-carbonyl]-amino}-acetic acid methyl ester]	100 to 1000
N#CC[C@@H](NC(=O)c1ccsc1Nc1ccnc2[nH]ccc12)c1ccccc1 [Example 139, 2-(1H-Pyrrolo[2,3-b]pyridin-4-ylamino)-thiophene-3-carboxylic acid ((R)-2-cyano-1-phenyl-ethyl)-amide]	< 100
NC[C@@H](NC(=O)c1ccsc1Nc1ccnc2[nH]ccc12)c1ccccc1 [Example 140, 2-(1H-Pyrrolo[2,3-b]pyridin-4-ylamino)-thiophene-3-carboxylic acid ((S)-2-amino-1-phenyl-ethyl)-amide]	< 100
